System: MM.1S cells
Assay: Effect of the compound on the proliferation of MM.1S cells (MTS)
Assay type: cell-based
Settings: Homo sapiens, MM1.S, 168 h, 7 days, read-out: Cell inhibitory activity (IC50)
Description: MM.1S cells were cultured with 1640 plus 10% fetal bovine serum and collected. The cell concentration was diluted according to the action time of 7 days, and 180 ul cell suspension was added to each well of the 96-well cell plate to make the cell count to be 20,000. 20 ul of DMSO with a final concentration of 0.2% was added to the control cell wells. The compound was diluted 5-fold with the 10 mM stock solution, and 20 ul was also added to the compound cell wells (the final concentration of DMSO is 0.2%). The cells were placed in a 37° C., 5% CO2 incubator and incubated for 7 days. After preparing the reaction solution according to the MTS kit (Promega, G5430), 20 μL was added to each well, incubated in a 37° C., 5% CO2 incubator for 3-4 h. Read the 490 nm absorbance value with a microtiter plate, and used the 690 nm absorbance value as the background value and OD490-OD690 as the final initial data. The formula for calculating the inhibition rate of the compound is: inhibition rate=(OD DMSO-ODcompound)/(ODDMSO-Oblank)×100%. The compound's proliferation inhibition IC50 was fitted by Graph Pad Prism 5.0. The experiment was repeated three times, and three parallel experiments were used to calculate the average and standard deviation each time.

| Compound | IC50 [nM] |
| --- | --- |
| O=C1CCC(N2Cc3c(OCc4cn(Cc5ccncc5)nn4)cccc3C2=O)C(=O)N1 (centres unmarked) [Compound 2] | 150 to 20000 |
| O=C1CCC(N2Cc3c(OCCc4cn(-c5ccccc5)nn4)cccc3C2=O)C(=O)N1 (centres unmarked) [Compound 60, 3-(1-oxo-4-(2-(1-phenyl-1H-1,2,3-triazol-4-)ethoxy)isoindolin-2-) piperidine-2,6-dione] | > 20000 |
| C[C@]1(N2Cc3c(OCc4cn(-c5ccc(OC(F)(F)F)cc5)nn4)cccc3C2=O)CCC(=O)NC1=O [Compound 34] | 150 to 20000 |
| O=C1CCC(N2Cc3c(NCc4cnc(-c5ccccc5OC(F)(F)F)o4)cccc3C2=O)C(=O)N1 (centres unmarked) [Compound 94] | 150 to 20000 |
| O=C1CCC(N2Cc3c(OCc4cn(Cc5ccc6[nH]cnc6c5)nn4)cccc3C2=O)C(=O)N1 (centres unmarked) [Compound 13] | 150 to 20000 |
| O=C1CCC(N2Cc3c(OC[C@@H]4CCN(c5ccnc6ccccc56)C4)cccc3C2=O)C(=O)N1 (stereo partly drawn) [Compound 66, 3-(1-oxo-4-(((R)-1-(quinolin-4-)pyrrolin-3-)methoxy)isoindolin-2-) piperidine-2,6-dione] | 150 to 20000 |
| C[C@]1(N2C(=O)c3cccc(OCc4cn(-c5ccc(OC(F)(F)F)cc5)nn4)c3C2=O)CCC(=O)NC1=O [Compound 35] | 150 to 20000 |
| CN(C)C[C@@H](Cc1ccccc1)n1cc(COc2cccc3c2CN(C2CCC(=O)NC2=O)C3=O)nn1 (some centres unmarked) [Compound 57] | < 150 |
| COCCn1ccc2cc(-n3cc(COc4cccc5c4CN([C@@]4(C)CCC(=O)NC4=O)C5=O)nn3)ccc21 [Compound 36, (S)-3-(4-((1-(1-(2-methoxyethyl)-1H-indol-5-)-1H-1,2,3-triazol-4-)methoxy)-1-oxoisoindolin-2-)-3-methylpiperidine-2,6-dione] | 150 to 20000 |
| [2H]c1c([2H])c([2H])c(-n2cc(COc3cccc4c3CN(C3CCC(=O)NC3=O)C4=O)nn2)c([2H])c1[2H] (centres unmarked) [Compound 78, 3-(1-oxo-4-((1-(phenyl-D5)-1H-1,2,3-triazol-4-yl)methoxy)isoindolin-2-yl) piperidine-2,6-dione] | < 150 |
| O=C1CCC(N2Cc3c(OCc4cn(-c5ccc(CCO)cc5)nn4)cccc3C2=O)C(=O)N1 (centres unmarked) [Compound 33] | < 150 |
| O=C1CCC(N2Cc3c(OCc4cn(-c5ccc(OC6CC6)cc5F)nn4)cccc3C2=O)C(=O)N1 (centres unmarked) [Compound 92, 3-(4-((1-(4-cyclopropoxy-2-fluorophenyl)-1H-1,2,3-triazol-4-yl)methoxy)-1-oxoisoindol-2-yl) piperidine-2,6-dione] | 150 to 20000 |
| O=C1CCC(N2Cc3c(OCc4cn(Cc5cccc(C(F)(F)F)c5)nn4)cccc3C2=O)C(=O)N1 (centres unmarked) [Compound 6, 3-(1-oxo-4-((1-(3-(trifluoromethyl)benzyl)-1H-1,2,3-triazol-4-)methoxy)isoindolin-2-) piperidine-2,6-dione] | < 150 |
| COCCn1ccc2cc(-n3cc(COc4cccc5c4C(=O)N([C@@]4(C)CCC(=O)NC4=O)C5=O)nn3)ccc21 [Compound 37, (S)-4-((1-(1-(2-methoxyethyl)-1H-indole-5-)-1H-1,2,3-triazol-4-)methoxy)-2-(3-methyl-2,6-dioxopiperidine-3-) isoindolin-1,3-dione] | 150 to 20000 |
| COC(=O)c1cccc(Cn2cc(COc3cccc4c3CN(C3CCC(=O)NC3=O)C4=O)nn2)c1 (centres unmarked) [Compound 10, Methyl 3-((4-(((2-(2,6-dioxopiperidin-3-)-1-oxoisoindolin-4-)oxo)methyl)-1H-1,2,3-triazol-1-)methyl) benzoate] | < 150 |
| O=C1CCC(N2Cc3c(OCc4cnc(-c5ccc(Cl)c(Cl)c5)o4)cccc3C2=O)C(=O)N1 (centres unmarked) [Compound 91, 3-(4-((2-(3,4-dichlorophenyl)oxazol-5-yl)methoxy)-1-oxoisoindol-2-yl) piperidine-2,6-dione] | < 150 |
| Cc1c(COc2cccc3c2CN(C2CCC(=O)NC2=O)C3=O)cnn1-c1c(Cl)cc(C(F)(F)F)cc1Cl (centres unmarked) [Compound 83] | < 150 |
| O=C1CCC(N2Cc3c(CCCc4cnc(-c5ccc(OC(F)(F)F)cc5)o4)cccc3C2=O)C(=O)N1 (centres unmarked) [Compound 63, 3-(1-oxo-4-(3-(2-(4-(trifluoromethoxy)phenyl)oxazol-5-yl)propyl)isoindolin-2-yl) piperidine-2,6-dione] | > 20000 |
| O=C1CCC(N2Cc3c(OCC4CCN(c5ccc(OC(F)(F)F)cc5)CC4)cccc3C2=O)C(=O)N1 (centres unmarked) [Compound 73, 3-(1-oxo-4-((1-(4-(trifluoromethoxy)phenyl)piperidin-4-)methoxy)isoindolin-2-) piperidin-2,6-dione] | < 150 |
| O=C1CCC(N2Cc3c(OCc4cn(Cc5ccccc5)nn4)cccc3C2=O)C(=O)N1 (centres unmarked) [Compound 1] | < 150 |
| CN(C)C[C@H](Cc1ccccc1)n1cc(COc2cccc3c2CN(C2CCC(=O)NC2=O)C3=O)nn1 (some centres unmarked) [Compound 56] | < 150 |

Results, then the compound that gave them:

| IC50 [nM] | Compound |
| --- | --- |
| < 150 | C[C@@H](Cc1ccccc1)n1cc(COc2cccc3c2CN(C2CCC(=O)NC2=O)C3=O)nn1 (stereo partly drawn) [Compound 59, 3-(1-oxo-4-((1-((S)-1-phenylpropyl-2-)-1H-1,2,3-triazol-4-)methoxy)isoindolin-2-) piperidine-2,6-dione] |
| < 150 | C[C@H](Cc1ccccc1)n1cc(COc2cccc3c2CN(C2CCC(=O)NC2=O)C3=O)nn1 (stereo partly drawn) [Compound 58, 3-(1-oxo-4-((1-((R)-1-phenylpropyl-2-)-1H-1,2,3-triazol-4-)methoxy)isoindolin-2-) piperidine-2,6-dione] |
| < 150 | [2H]c1c([2H])c([2H])c(-n2cc(COc3cc(F)cc4c3CN(C3CCC(=O)NC3=O)C4=O)nn2)c([2H])c1[2H] (centres unmarked) [Compound 79, 3-(6-fluoro-1-oxo-4-((1-(phenyl-D5)-1H-1,2,3-triazol-4-yl)methoxy)isoindolin-2-yl) piperidine-2,6-dione] |
| < 150 | O=C1CCC(N2Cc3c(OCc4cnc(-c5ccc(OC(F)(F)F)cc5)o4)cc(F)cc3C2=O)C(=O)N1 (centres unmarked) [Compound 80, 3-(6-fluoro-1-oxo-4-((2-(4-(trifluoromethoxy)phenyl)oxazol-5-yl)methoxy)isoindolin-2-yl) piperidine-2,6-dione] |
| < 150 | CC(n1cc(COc2cccc3c2CN(C2CCC(=O)NC2=O)C3=O)nn1)C12CC3CC(CC(C3)C1)C2 [Compound 88, 3-(4-((1-(1-((1S, 3S)-adamantan-1-yl)ethyl)-1H-1,2,3-triazol-4-yl)methoxy)-1-isoindolin-2-yl) piperidin-2,-6-dione] |
| < 150 | O=C1CCC(N2Cc3c(OCc4cn(Cc5ccc(CN6CCOCC6)cc5)nn4)cccc3C2=O)C(=O)N1 (centres unmarked) [Compound 12, 3-(4-((1-(4-(morpholinomethyl)benzyl)-1H-1,2,3-triazol-4-)methoxy)-1-oxoisoindolin-2-) piperidine-2,6-dione] |
| < 150 | O=C1CCC(N2Cc3c(OCc4cn(Cc5cccc(OC(F)(F)F)c5)nn4)cccc3C2=O)C(=O)N1 (centres unmarked) [Compound 11] |
| < 150 | O=C1CCC(N2Cc3c(OCc4cn(CCc5ccccc5)nn4)cccc3C2=O)C(=O)N1 (centres unmarked) [Compound 49] |
| < 150 | O=C1CCC(N2Cc3c(OCc4cn(-c5ccccc5)nn4)cccc3C2=O)C(=O)N1 (centres unmarked) [Compound 15, 3-(1-oxo-4-((1-phenyl-1H-1,2,3-triazol-4-)methoxy)isoindolin-2-) piperidine-2,6-dione] |
| < 150 | O=C1CCC(N2Cc3c(OCc4cn(Cc5ccc(N6CCOCC6)cc5)nn4)cccc3C2=O)C(=O)N1 (centres unmarked) [Compound 8, 3-(4-((1-(4-morpholinbenzyl)-1H-1,2,3-triazol-4-)methoxy)-1-oxoisoindolin-2-) piperidine-2,6-dione] |
| < 150 | O=C1CCC(N2Cc3c(CCc4cnc(-c5ccc(OC(F)(F)F)cc5)o4)cccc3C2=O)C(=O)N1 (centres unmarked) [Compound 62, 3-(1-oxo-4-(2-(2-(4-(trifluoromethoxy)phenyl)oxazol-5-yl)ethyl)isoindolin-2-yl) piperidine-2,6-dione] |
| < 150 | O=C1CCC(N2Cc3c(OCCc4cn(-c5ccc(OC(F)(F)F)cc5)nn4)cccc3C2=O)C(=O)N1 (centres unmarked) [Compound 61, 3-(1-oxo-4-(2-(1-(4-(trifluoromethoxy)phenyl)-1H-1,2,3-triazol-4-)ethoxy)isoindoline-2-) piperidine-2,6-dione] |
| < 150 | CN(C)CCn1ccc2cc(-n3cc(COc4cccc5c4CN(C4CCC(=O)NC4=O)C5=O)nn3)ccc21 (centres unmarked) [Compound 27, 3-(4-((1-(1-(2-(dimethylamino)ethyl)-1H-indol-5-)-1H-1,2,3-triazol-4-)methoxy)-1-oxoisoindolin-2-)piperidine-2,6-dione] |
| < 150 | O=C1CCC(N2Cc3c(OCc4cn(Cc5cccc(N6CCOCC6)c5)nn4)cccc3C2=O)C(=O)N1 (centres unmarked) [Compound 7, 3-(4-((1-(3-morpholinbenzyl)-1H-1,2,3-triazol-4-)methoxy)-1-oxoisoindolin-2-) piperidine-2,6-dione] |

Source: US20220041578A1, “ISOINDOLINE COMPOUND, AND PREPARATION METHOD, PHARMACEUTICAL COMPOSITION, AND APPLICATION OF ISOINDOLINE COMPOUND” (Shanghai Institute of Meteria Medica, Chinese Academy of …, priority 2018, published 2022)
